# Data published in patent US20260007133A1, “HERBICIDAL COMPOSITION COMPRISING AZINE COMPOUNDS” (BASF SE, priority 2022, published 2026).
# Assays:
# Format in all cases: in vivo
# Euphorbia heterophylla [1] = assay: Greenhouse pre-emergence (PRE) herbicidal test on EPHHL; details: Euphorbia heterophylla, pre-emergence
# Outline: (§1)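 Seeds were sown per species in pots of loamy sand with about 3.0% humus, treated pre-emergence, watered and hooded until rooted. Plants grew at 10-25° C or 20-35° C depending on species. Damage was scored 0-100 (100 = no emergence or above-ground parts destroyed) at 20 DAT.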
# Galium aparine = assay: Greenhouse pre-emergence (PRE) herbicidal test on GALAP; details: Galium aparine, pre-emergence; GALAP PRE, use rate 1200 gai/ha
# Excerpt: (§2) The culture containers used were plastic pots containing loamy sand with approximately 3.0% of humus as substrate. The seeds of the test plants were sown separately for each species.
# (§3) For the pre-emergence treatment, the active compounds, suspended or emulsified in water, were applied directly after sowing by means of finely distributing nozzles. The containers were irrigated gently to promote germination and growth and subsequently covered with transparent plastic hoods until the plants had rooted. This cover caused uniform germination of the test plants unless this was adversely affected by the active compounds.
# (§4) Depending on the species, the plants were kept at 10-25° C. and 20-35° C., respectively.
# (§5) The test period extended over 2 to 4 weeks. During this time, the plants were tended and their response to the individual treatments was evaluated.
# (§6) Evaluation was carried out using a scale from 0 to 100. 100 means no emergence of the plants, or complete destruction of at least the above-ground parts, and 0 means no damage or normal course of growth. A good herbicidal activity is given at values of at least 70, and very good herbicidal activity is given at values of at least 85.
# (§7) If not stated differently, the respective components A and B, and if appropriate, C were formulated as a 5% by weight strength emulsion concentrate and, with addition of the amount of solvent system, introduced into the spray liquor used for applying the active compound.
# (§8) As indicated application was either post emergent (POST) at the respective growth stage (GS) of the weed (BBCH code), or pre-emergent (PRE).
# (§9) Assessment was 20 days after treatment (DAT).
# Avena fatua = assay: Greenhouse pre-emergence (PRE) herbicidal test on AVEFA
# Excerpt: as §2, §3, §4, §5, §6, §7, §8, §9
# Geranium pusillum [2] = assay: Greenhouse pre-emergence (PRE) herbicidal test on GERPU; details: Geranium pusillum, pre-emergence, GERPU PRE
# Excerpt: as §2, §3, §4, §5, §6, §7, §8, §9
# Commelina benghalensis [3] = assay: Greenhouse pre-emergence (PRE) herbicidal test on COMBE; details: Commelina benghalensis, pre-emergence, COMBE PRE, use rate 1200 gai/ha
# Outline: as §1
# Alopecurus myosuroides = assay: Greenhouse pre-emergence (PRE) herbicidal test on ALOMY; details: Alopecurus myosuroides, pre-emergence, ALOMY PRE
# Outline: as §1
# Lolium multiflorum = assay: Greenhouse pre-emergence (PRE) herbicidal test on LOLMU; details: Lolium multiflorum, pre-emergence, LOLMU PRE
# Outline: as §1
# Abutilon theophrasti = assay: Greenhouse pre-emergence (PRE) herbicidal test on ABUTH; details: Abutilon theophrasti, pre-emergence
# Outline: as §1
# Ipomoea hederacea = assay: Greenhouse pre-emergence (PRE) herbicidal test on IPOHE; details: Ipomoea hederacea, pre-emergence
# Excerpt: as §2, §3, §4, §5, §6, §7, §8, §9
# Geranium pusillum [4] = assay: Greenhouse post-emergence (POST) herbicidal test on GERPU; details: Geranium pusillum, post-emergence, 480 h, POST, GERPU, use rate 50 gai/ha, 20 DAT
# Outline: (§10)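 Injury was rated visually on a 0–100 scale, where 0 is normal growth and 100 is complete above-ground kill, 20 days after treatment. Test plants at 3–15 cm height received a post-emergence spray of water-dispersed active from 5% emulsion concentrates. Pots held loamy sand with ~3.0% humus, at 10-25 °C or 20-35 °C depending on species.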
# Echinochloa crus-galli [5] = assay: Greenhouse post-emergence (POST) herbicidal test on ECHCG; details: Echinochloa crus-galli, post-emergence, 480 h, POST, ECHCG, use rate 100 gai/ha, 20 DAT; read-out: % activity
# Outline: as §10
# Commelina benghalensis [6] = assay: Greenhouse post-emergence (POST) herbicidal test on COMBE; details: 480 h, 20 DAT
# Protocol: as §2
# (§11) For the post-emergence treatment, the test plants were grown to a plant height of from 3 to 15 cm, depending on the plant habit, and only then treated with the active compounds which had been suspended or emulsified in water. To this end, the test plants were either sown directly, and grown in the same containers, or they were first grown separately as seedlings and transplanted into the test containers a few days prior to treatment.
# as §4, §5, §6, §7, §8, §9
# Digitaria sanguinalis = assay: Greenhouse post-emergence (POST) herbicidal test on DIGSA; details: Digitaria sanguinalis, post-emergence, 480 h, POST, DIGSA, use rate 100 gai/ha, 20 DAT
# Outline: as §10
# Echinochloa crus-galli [7] = assay: Greenhouse pre-emergence (PRE) herbicidal test on ECHCG; details: Echinochloa crus-galli, pre-emergence, 480 h, PRE, ECHCG, 20 DAT
# Setaria viridis = assay: Greenhouse post-emergence (POST) herbicidal test on SETVI; details: 480 h, 20 DAT
# Protocol: as §2, §11, §4, §5, §6, §7, §8, §9
# Euphorbia heterophylla [8] = assay: Greenhouse post-emergence (POST) herbicidal test on EPHHL; details: Euphorbia heterophylla, post-emergence, 480 h, POST, EPHHL, 20 DAT
# Outline: as §10
# Brachiaria decumbens = assay: Greenhouse pre-emergence (PRE) herbicidal test on BRADC; details: Urochloa decumbens, BRADC PRE, use rate 400 gai/ha
# Excerpt: as §2, §3, §4, §5, §6, §7, §8, §9
# [9] = use rate 8 gai/ha, read-out: % activity
structure (smiles),measurement,setting,value
"Nc1c([N+](=O)[O-])ccc(Oc2ccccc2)c1Cl [Aclonifen, aclonifen]",inhibition at 300 g/ha,"Euphorbia heterophylla [1]; EPHHL PRE, use rate 300 gai/ha",20%
same,inhibition at 1200 g/ha,"Euphorbia heterophylla [1]; EPHHL PRE, use rate 1200 gai/ha",50%
same,inhibition at 1200 g/ha,Galium aparine,45%
same,inhibition at 300 g/ha,Avena fatua; use rate 300 gai/ha,0%
same,inhibition at 1200 g/ha,Avena fatua; use rate 1200 gai/ha,0%
same,inhibition at 300 g/ha,Geranium pusillum [2]; use rate 300 gai/ha,30%
same,inhibition at 1200 g/ha,Geranium pusillum [2]; use rate 1200 gai/ha,65%
same,inhibition at 1200 g/ha,Commelina benghalensis [3],85%
same,inhibition at 300 g/ha,Alopecurus myosuroides; use rate 300 gai/ha,0%
same,inhibition at 1200 g/ha,Alopecurus myosuroides; use rate 1200 gai/ha,50%
same,inhibition at 300 g/ha,Lolium multiflorum; use rate 300 gai/ha,10%
same,inhibition at 1200 g/ha,"Abutilon theophrasti; ABUTH PRE, use rate 1200 gai/ha",35%
same,inhibition at 1200 g/ha,"Ipomoea hederacea; IPOHE PRE, use rate 1200 gai/ha",0%
"O=C(Nc1ccc(F)cc1F)c1cccnc1Oc1cccc(C(F)(F)F)c1 [Diflufenican, diflufenican]",inhibition at 50 g/ha,Geranium pusillum [4],25%
same,inhibition at 100 g/ha,Echinochloa crus-galli [5],40%
same,inhibition at 50 g/ha,Commelina benghalensis [6]; use rate 50 gai/ha,25%
same,inhibition at 100 g/ha,Commelina benghalensis [6]; use rate 100 gai/ha,20%
same,inhibition at 100 g/ha,Digitaria sanguinalis,35%
"Cn1nc(C(F)(F)F)c(CS(=O)(=O)C2=NOC(C)(C)C2)c1OC(F)F [Pyroxasulfone, pyroxasulfone]",inhibition at 4 g/ha,"Euphorbia heterophylla [1]; 480 h, PRE, EPHHL, use rate 4 gai/ha, 20 DAT",25%
same,inhibition at 8 g/ha,"Euphorbia heterophylla [1]; 480 h, PRE, EPHHL, use rate 8 gai/ha, 20 DAT, read-out: % activity",20%
same,inhibition at 16 g/ha,"Euphorbia heterophylla [1]; 480 h, PRE, EPHHL, use rate 16 gai/ha, 20 DAT",25%
same,inhibition at 4 g/ha,Echinochloa crus-galli [7]; use rate 4 gai/ha,80%
same,inhibition at 8 g/ha,Echinochloa crus-galli [7]; [9],80%
same,inhibition at 16 g/ha,Commelina benghalensis [6]; use rate 16 gai/ha,45%
same,inhibition at 4 g/ha,Setaria viridis; use rate 4 gai/ha,30%
same,inhibition at 8 g/ha,Setaria viridis; use rate 8 gai/ha,40%
same,inhibition at 16 g/ha,Setaria viridis; use rate 16 gai/ha,80%
same,inhibition at 8 g/ha,Euphorbia heterophylla [8]; [9],10%
same,inhibition at 16 g/ha,Euphorbia heterophylla [8]; use rate 16 gai/ha,25%
same,inhibition at 4 g/ha,"Abutilon theophrasti; 480 h, PRE, ABUTH, use rate 4 gai/ha, 20 DAT",0%
same,inhibition at 8 g/ha,"Abutilon theophrasti; 480 h, PRE, ABUTH, use rate 8 gai/ha, 20 DAT, read-out: % activity",0%
same,inhibition at 16 g/ha,"Abutilon theophrasti; 480 h, PRE, ABUTH, use rate 16 gai/ha, 20 DAT",10%
same,inhibition at 16 g/ha,"Ipomoea hederacea; 480 h, PRE, IPOHE, use rate 16 gai/ha, 20 DAT",0%
"CCC(C)(CC)c1cc(NC(=O)c2c(OC)cccc2OC)on1 [Isoxaben, isoxaben]",inhibition at 400 g/ha,Brachiaria decumbens,0%
same,inhibition at 100 g/ha,Avena fatua; use rate 100 gai/ha,0%
same,inhibition at 400 g/ha,Avena fatua; use rate 400 gai/ha,0%
same,inhibition at 100 g/ha,Geranium pusillum [2]; use rate 100 gai/ha,15%
same,inhibition at 400 g/ha,Alopecurus myosuroides; use rate 400 gai/ha,15%
same,inhibition at 100 g/ha,Lolium multiflorum; use rate 100 gai/ha,0%
same,inhibition at 400 g/ha,Lolium multiflorum; use rate 400 gai/ha,0%
